Tests used:
human CYP11B2 = molecular target: T1, human CYP11B2 (Homo sapiens, UniProt P19099); assay: G-402 cellular enzyme assay, human CYP11B2 (aldosterone release, HTRF); type: cell-based; conditions: G-402 cells expressing human CYP11B2; 1 μM Deoxycorticosterone
T1 construct: expressed in transfected cells
T1 sequence (P19099 25-503): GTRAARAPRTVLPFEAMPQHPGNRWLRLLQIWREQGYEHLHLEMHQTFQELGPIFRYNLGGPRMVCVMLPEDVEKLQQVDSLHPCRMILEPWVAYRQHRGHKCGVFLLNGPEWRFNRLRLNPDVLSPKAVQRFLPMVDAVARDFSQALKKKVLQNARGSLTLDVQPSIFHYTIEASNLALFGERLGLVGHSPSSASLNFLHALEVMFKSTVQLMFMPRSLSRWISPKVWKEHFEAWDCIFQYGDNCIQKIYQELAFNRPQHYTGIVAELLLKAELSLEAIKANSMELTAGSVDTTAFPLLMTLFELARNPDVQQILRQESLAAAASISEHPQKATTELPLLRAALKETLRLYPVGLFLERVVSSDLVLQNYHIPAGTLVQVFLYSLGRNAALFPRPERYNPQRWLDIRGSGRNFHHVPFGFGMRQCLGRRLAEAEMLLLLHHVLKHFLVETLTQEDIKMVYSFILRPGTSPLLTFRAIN
Outline: (§1)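 G-402 cells stably expressing human CYP11B2 or CYP11B1, in DMEM/F12 with 2.5% charcoal-treated FCS, were incubated 16 h with compound plus 1 μM deoxycorticosterone (CYP11B2) or 1 μM deoxycortisol (CYP11B1). Aldosterone or cortisol in the supernatant measured by HTRF; EC50 from a 4-parameter MMF fit.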

human CYP11B1 = molecular target: T2, human CYP11B1 (Homo sapiens, UniProt P15538); assay: G-402 cellular enzyme assay, human CYP11B1 (cortisol release, HTRF); type: cell-based; conditions: G-402 cells expressing human CYP11B1; 1 μM Deoxycortisol
T2 construct: expressed in transfected cells
T2 sequence (P15538 25-503): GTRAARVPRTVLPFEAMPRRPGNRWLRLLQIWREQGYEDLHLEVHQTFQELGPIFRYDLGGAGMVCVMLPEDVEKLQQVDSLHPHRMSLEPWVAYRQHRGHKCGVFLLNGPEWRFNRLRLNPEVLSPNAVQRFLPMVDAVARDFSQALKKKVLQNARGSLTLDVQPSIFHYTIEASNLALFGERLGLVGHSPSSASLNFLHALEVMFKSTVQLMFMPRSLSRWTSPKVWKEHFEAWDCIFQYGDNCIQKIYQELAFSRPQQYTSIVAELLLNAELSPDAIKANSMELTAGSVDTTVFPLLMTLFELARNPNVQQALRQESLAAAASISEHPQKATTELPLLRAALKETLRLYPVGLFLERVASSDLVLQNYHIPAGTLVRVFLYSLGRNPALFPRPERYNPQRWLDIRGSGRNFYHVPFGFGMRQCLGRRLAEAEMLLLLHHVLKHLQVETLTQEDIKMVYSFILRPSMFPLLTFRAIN
Outline: as §1

Row | Structure (SMILES) | EC50 (human CYP11B2) [nM] | EC50 (human CYP11B1) [nM]
1 | CCS(=O)(=O)N1CCC[C@H](Oc2cncc(-c3ccc4c(c3)CCC(=O)N4C)c2)C1 [Example 160, 6-[5-((S)-1-Ethanesulfonyl-piperidin-3-yloxy)-pyridin-3-yl]-1-methyl-3,4-dihydro-1H-quinolin-2-one] | 113 | 716
2 | CN1C(=O)CCc2cc(-c3cncc(CNS(=O)(=O)CC(F)(F)F)c3)ccc21 [Example 162, 2,2,2-Trifluoro-ethanesulfonic acid [5-(1-methyl-2-oxo-1,2,3,4-tetrahydro-quinolin-6-yl)-pyridin-3-ylmethyl]-amide] | 62 | 2850
3 | CN1C(=O)CCc2cc(-c3cncc(CNS(=O)(=O)C(F)(F)F)c3)ccc21 [Example 163, C,C,C-Trifluoro-N-[5-(1-methyl-2-oxo-1,2,3,4-tetrahydro-quinolin-6-yl)-pyridin-3-ylmethyl]-methanesulfonamide] | 61 | 2390
4 | CCS(=O)(=O)NC1(c2cncc(-c3ccc4c(c3)CCC(=O)N4C)c2)CC1 [Example 166, Ethanesulfonic acid {1-[5-(1-methyl-2-oxo-1,2,3,4-tetrahydro-quinolin-6-yl)-pyridin-3-yl]-cyclopropyl}-amide] | 22 | 1210
5 | CCS(=O)(=O)N1CCC[C@H]1COc1cncc(-c2ccc3c(c2)CCC(=O)N3C)c1 [Example 167, 6-[5-((S)-1-Ethanesulfonyl-pyrrolidin-2-ylmethoxy)-pyridin-3-yl]-1-methyl-3,4-dihydro-1H-quinolin-2-one] | 18 | 898
6 | CCS(=O)(=O)N1CC[C@@H](Oc2cncc(-c3ccc4c(c3)CCC(=O)N4C)c2)C1 [Example 169, 6-[5-((R)-1-Ethanesulfonyl-pyrrolidin-3-yloxy)-pyridin-3-yl]-1-methyl-3,4-dihydro-1H-quinolin-2-one] | 35 | 850
7 | CCS(=O)(=O)N1CC(Oc2cncc(-c3ccc4c(c3)CCC(=O)N4C)c2)C1 [Example 170, 6-[5-(1-Ethanesulfonyl-azetidin-3-yloxy)-pyridin-3-yl]-1-methyl-3,4-dihydro-1H-quinolin-2-one] | 15 | 699
8 | CCN(Cc1cncc(-c2ccc3c(c2)CCC(=O)N3C)c1)S(=O)(=O)CC [Example 181, Ethanesulfonic acid ethyl-[5-(1-methyl-2-oxo-1,2,3,4-tetrahydro-quinolin-6-yl)-pyridin-3-ylmethyl]-amide] | 25 | 2320
9 | CCS(=O)(=O)N(Cc1cncc(-c2ccc3c(c2)CCC(=O)N3C)c1)C(C)C [Example 184, Ethanesulfonic acid isopropyl-[5-(1-methyl-2-oxo-1,2,3,4-tetrahydro-quinolin-6-yl)-pyridin-3-ylmethyl]-amide] | 227 | 9740
10 | CCOCCN(Cc1cncc(-c2ccc3c(c2)CCC(=O)N3C)c1)S(=O)(=O)CC [Example 185, Ethanesulfonic acid (2-ethoxy-ethyl)-[5-(1-methyl-2-oxo-1,2,3,4-tetrahydro-quinolin-6-yl)-pyridin-3-ylmethyl]-amide] | 633 | 9290
11 | Cc1noc(C)c1C(=O)N(C)Cc1cncc(-c2ccc3c(c2)CCC(=O)N3C)c1 [Example 188, 3,5-Dimethyl-isoxazole-4-carboxylic acid methyl-[5-(1-methyl-2-oxo-1,2,3,4-tetrahydro-quinolin-6-yl)-pyridin-3-ylmethyl]-amide] | 14 | 572
12 | CCS(=O)(=O)NCc1cncc(-c2cc3c(cc2F)N(C)C(=O)CC3)c1C [Example 192, Ethanesulfonic acid [5-(7-fluoro-1-methyl-2-oxo-1,2,3,4-tetrahydro-quinolin-6-yl)-4-methyl-pyridin-3-ylmethyl]-amide] | 29 | 1980
13 | CCS(=O)(=O)NCc1cncc(-c2ccc3c(c2)CCC(=O)N3C)c1Cl [Example 193, Ethanesulfonic acid [4-chloro-5-(1-methyl-2-oxo-1,2,3,4-tetrahydro-quinolin-6-yl)-pyridin-3-ylmethyl]-amide] | 22 | 1010
14 | CCS(=O)(=O)NCc1cncc(-c2ccc3c(c2)CCC(=O)N3C)c1C [Example 194, Ethanesulfonic acid [4-methyl-5-(1-methyl-2-oxo-1,2,3,4-tetrahydro-quinolin-6-yl)-pyridin-3-ylmethyl]-amide] | 41 | 1700

Second part, the compound after the results:

Row | EC50 (human CYP11B2) [nM] | EC50 (human CYP11B1) [nM] | Structure (SMILES)
15 | 1 | 8 | CCS(=O)(=O)N1CCC(Oc2cncc(-c3ccc4c(c3)CCC(=O)N4C)c2)CC1 [Example 161, 6-[5-(1-Ethanesulfonyl-piperidin-4-yloxy)-pyridin-3-yl]-1-methyl-3,4-dihydro-1H-quinolin-2-one]
16 | 9 | 207 | CCS(=O)(=O)N1CC[C@H](Oc2cncc(-c3ccc4c(c3)CCC(=O)N4C)c2)C1 [Example 164, 6-[5-((S)-1-Ethanesulfonyl-pyrrolidin-3-yloxy)-pyridin-3-yl]-1-methyl-3,4-dihydro-1H-quinolin-2-one]
17 | 13 | 494 | CCS(=O)(=O)N1CC[C@H]1COc1cncc(-c2ccc3c(c2)CCC(=O)N3C)c1 [Example 165, 6-[5-((S)-1-Ethanesulfonyl-azetidin-2-ylmethoxy)-pyridin-3-yl]-1-methyl-3,4-dihydro-1H-quinolin-2-one]
18 | 14 | 273 | CCS(=O)(=O)N1CC[C@@H](Oc2cncc(-c3cc4c(cc3F)N(C)C(=O)CC4)c2)C1 [Example 168, 6-[5-((R)-1-Ethanesulfonyl-pyrrolidin-3-yloxy)-pyridin-3-yl]-7-fluoro-1-methyl-3,4-dihydro-1H-quinolin-2-one]
19 | 9 | 420 | CCS(=O)(=O)NC1(c2cncc(-c3cc4c(cc3F)N(C)C(=O)CC4)c2)CC1 [Example 171, Ethanesulfonic acid {1-[5-(7-fluoro-1-methyl-2-oxo-1,2,3,4-tetrahydro-quinolin-6-yl)-pyridin-3-yl]-cyclopropyl}-amide]
20 | 1 | 69 | CCS(=O)(=O)N[C@H]1CC[C@H](Oc2cncc(-c3ccc4c(c3)CCC(=O)N4C)c2)CC1 [Example 172, Ethanesulfonic acid {(trans)-4-[5-(1-methyl-2-oxo-1,2,3,4-tetrahydro-quinolin-6-yl)-pyridin-3-yloxy]-cyclohexyl}-amide]
21 | 7 | 688 | CN1C(=O)CCc2cc(-c3cncc(CNC(=O)c4cnn(C)c4)c3)c(F)cc21 [Example 175, 1-Methyl-1H-pyrazole-4-carboxylic acid [5-(7-fluoro-1-methyl-2-oxo-1,2,3,4-tetrahydro-quinolin-6-yl)-pyridin-3-ylmethyl]-amide]
22 | 12 | 169 | CN1C(=O)CCc2cc(-c3cncc(CN4CCCS4(=O)=O)c3)ccc21 [Example 179, 6-[5-(1,1-Dioxo-1λ^6-isothiazolidin-2-ylmethyl)-pyridin-3-yl]-1-methyl-3,4-dihydro-1H-quinolin-2-one]
23 | 6 | 302 | CCS(=O)(=O)N(C)Cc1cncc(-c2ccc3c(c2)CCC(=O)N3C)c1 [Example 182, Ethanesulfonic acid methyl-[5-(1-methyl-2-oxo-1,2,3,4-tetrahydro-quinolin-6-yl)-pyridin-3-ylmethyl]-amide]
24 | 4 | 268 | CCS(=O)(=O)NC(C)(C)c1cncc(-c2ccc3c(c2)CCC(=O)N3C)c1 [Example 183, Ethanesulfonic acid {1-methyl-1-[5-(1-methyl-2-oxo-1,2,3,4-tetrahydro-quinolin-6-yl)-pyridin-3-yl]-ethyl}-amide]
25 | 2 | 93 | CN1C(=O)CCc2cc(-c3cncc(OCCN4CCCS4(=O)=O)c3)ccc21 [Example 189, 6-{5-[2-(1,1-Dioxo-1λ^6-isothiazolidin-2-yl)-ethoxy]-pyridin-3-yl}-1-methyl-3,4-dihydro-1H-quinolin-2-one]
26 | 1 | 56 | CCS(=O)(=O)N(C)CCOc1cncc(-c2ccc3c(c2)CCC(=O)N3C)c1 [Example 195, Ethanesulfonic acid methyl-{2-[5-(1-methyl-2-oxo-1,2,3,4-tetrahydro-quinolin-6-yl)-pyridin-3-yloxy]-ethyl}-amide]

Source: patent US9260408B2, “Dihydroquinoline-2-one derivatives” (Hoffmann-La Roche Inc., priority 2011, dated 2016)
